# Test results as given in paper PMC9555310, “Novel inhibitors and activity-based probes targeting serine proteases” (Frontiers in Chemistry, 2022).
# “And” between values parts separate entries of the source, which are not always exact repeats. Equal entries are not always repeated. Where two headings read alike, the source gives them in different places.
# Legend:
# chymotrypsin [1] = target: T1, chymotrypsin (Bos taurus, UniProt P00766); experiment: Off-target study, residual activity after 2 min pre-incubation: chymotrypsin; assay type: biochemical, bovine; settings: highest concentration (50 μM); 2 min incubation, PBS pH 7.4, 37°C
# T1 construct: purchased Sigma-Aldrich (supplement); Calbiochem; host or cells: bovine pancreas
# Protocol: (§1) FIGURE 5 Results of “off-target“ studies. NAP849 (A), NAP800 (B) and NAP830 (C) were tested against trypsin, chymotrypsin, and NE. Samples (approx. 0.01 μg) of each protease were incubated with the indicated concentrations of test compound for 2 min, in PBS, pH 7.4, at 37°C. (D) NAP858, NAP962 and NAP849 were tested against cathepsin B at the indicated concentrations in 0.1 M MES, pH 6.1, containing 1 mM EDTA, for 2 min, at 37°C. Aliquots (approx. 10 μL) of each incubation sample were then added to a fresh sample (990 μL) of PBS for the serine proteases and MES for cathepsin B, containing the appropriate substrate for each protease, to measure their residual activity. Controls incubations were performed in the absence of test compound, but in the presence of an appropriate volume of DMF vehicle used to prepare stock solutions of each inhibitor under study.
# (§2) Two elements were investigated regarding possible “off-target” effects–determining the extent of cross-reactivity of each of the new putative ABPs between the various serine protease family members and assessing their collateral inhibitory action against another mechanistic class–the cysteine proteases, using cathepsin B (CTSB) as an exemplar.
# (§3) For assays requiring a pre-incubation step enzyme and inhibitor in assay buffer were incubated together, at 37 °C, for 2 min, with gentle agitation. The reaction mixture was then aliquoted (50 μL) in duplicate on a black 96-well microtitre plate followed by addition of substrate to make a final concentration of 50 μM in a total volume of 100 μL. The fluorescence production was then measured as described for the previous procedure.
# (§4) Figure ST1. Results of “off-target” studies. NAP559 and NAP533 were tested against chymotrypsin, and NE. Samples (approx. 0.01 mg) of each protease were incubated with the indicated concentrations of test compound for 2 min, in PBS, pH 7.4, at 37 °C. Aliquots (approx. 10 µL) of each incubation sample were then added to a fresh sample (990 µL) of PBS containing the appropriate substrate for each protease, to measure their residual activity. Controls incubations were performed in the absence of test compound, but in the presence of an appropriate volume of DMF vehicle used to prepare stock solutions of each inhibitor under study.
# plasmin = target: T2, plasmin (Homo sapiens, UniProt P00747); experiment: Irreversible inhibition kinetics of plasmin (fluorogenic substrate progress curves); assay type: biochemical; settings: PBS pH 7.4, 37°C, mean ± SD (n=2)
# T2 construct: purchased Sigma-Aldrich (supplement); R&D Systems; host or cells: human plasma
# Protocol: A range of inhibitor concentrations were prepared from a 10 mM stock solution of the test compounds (NAP533, NAP559, NAP800, NAP830, NAP849, and NAP962) in N, N-dimethylformamide (DMF). Recombinant protease activities were assayed using the cognate fluorogenic substrates as follows: trypsin (Z-Gly-Gly-Arg-NHMec), thrombin (Boc-Val-Pro-Arg-NHMec), plasmin (Boc-Val-Leu-Lys-NHMec), human neutrophil elastase (MeO-Succinyl-Ala-Ala-Pro-Val-NHMec), and chymotrypsin (Succinyl-Ala-Ala-Pro-Phe-NHMec). Each substrate was used at a final concentration of 50 μM, in the appropriate buffer for each protease. All inhibition assays were performed in microtiter plates maintained at 37°C in a final volume of 100 μL. The reaction was initiated by the addition of each protease (approx. 0.01 μg/well) and the rate of substrate hydrolysis was recorded continuously at 37°C, over a 60 min period, by measuring the rate of increase in fluorescence (at λex 360 nm, λem 480 nm) using a FLUOstar Optima microplate reader (BMG Labtech).
# The resultant inhibition progress curves obtained for each inhibitor were analyzed by the kinetic models developed by [Tian and Tsou (1982)] and [Walker and Elmore (1984)], for irreversible inhibitors, with curve fitting being achieved using GraFit (Erithacus Software), as described previously ([Ferguson et al., 2016]).
# FIGURE 4 Progress curves for (A), chymotrypsin-catalysed hydrolysis of Succinyl-Ala-Ala-Pro-Phe-NHMec, in the presence of varying concentrations of NAP849. (B), NE-catalysed hydrolysis of MeO-succinyl-Ala-Ala-Pro-Val-NHMec, in the presence of varying concentrations of NAP800. (C) Trypsin-catalysed of Z-Gly-Gly-Arg-NHMec, in the presence of NAP830. (D) Plasmin-catalysed hydrolysis of Boc-Val-Leu-Lys-NHMec, in the presence of varying concentrations of NAP962. Assays were carried out in PBS, pH 7.4, at 37°C, in the presence of a range of inhibitor concentrations (0.25–50 μM) and a fixed concentration (50 μM) of the appropriate substrate for each protease.
# The “product progress” curves for substrate hydrolysis in the presence of an inhibitor (Figure 4) are indicative of the action of irreversible inhibitors operating through the kinetic scheme illustrated in Figure 6. In this scheme, the formation of the reversible enzyme–inhibitor complex (EI) is zcharacterized by the inhibitor constant K i. This is converted into the covalent/irreversible complex (E-I) characterized by a first-order rate constant k 3. The overall second-order rate constant for the inactivation of E by I is given by the ratio k 3/K i ([Walker and Elmore, 1984]; [Tsou, 1988]).
# Fluorogenic enzyme assays were carried out on a FLUOstar OPTIMA spectro-fluorimeter (BMG Labtech) with analysis performed on MARS Data Analysis Software (BMG Labtech). Black 96-well microtitre plates were supplied by Thermo Scientific. Trypsin from porcine pancreas, plasmin from human plasma and chymotrypsin from bovine pancreas were obtained from Sigma-Aldrich. Thrombin and Cathepsin B were supplied by R and D Systems. Human Neutrophil Elastase was supplied by Calbiochem. Fluorogenic substrates Z-Gly-Gly-Arg-NHMec, Succinyl-Ala-Ala-Pro-Phe-NHMec and MeO-Succinyl-Ala-Ala-Pro-Val-NHMec were supplied by Sigma-Aldrich. Boc-Val-Pro-Arg-NHMec was obtained from R and D Systems and Boc-Val-Leu-Lys-NHMec was supplied by PeptaNova. Phosphate Buffered Saline tablets were acquired from Sigma- Aldrich.
# Protease inactivation by each of the compounds under study was evaluated using a fluorogenic enzyme assays. Protease-substrate combinations used as detailed in Section 2. Inhibitors were made up as 10 mM stock solutions in either DMF or DMSO, then diluted with PBS (pH 7.4) to give appropriate working concentrations. A final volume of 100 μL was used per well. Substrate (50 μM final concentration) was added to a black 96-well microtitre plate (Thermo Scientific), in duplicate, followed by addition of inhibitor, in such a manner to give the required final concentration. […]
# neutrophil elastase (NE) = target: T3, neutrophil elastase (NE) (Homo sapiens, UniProt P08246); experiment: Off-target study, residual activity after 2 min pre-incubation: NE; assay type: biochemical; settings: highest concentration (50 μM); 2 min incubation, PBS pH 7.4, 37°C
# T3 construct: purchased Calbiochem
# T3 sequence (P08246 30-267): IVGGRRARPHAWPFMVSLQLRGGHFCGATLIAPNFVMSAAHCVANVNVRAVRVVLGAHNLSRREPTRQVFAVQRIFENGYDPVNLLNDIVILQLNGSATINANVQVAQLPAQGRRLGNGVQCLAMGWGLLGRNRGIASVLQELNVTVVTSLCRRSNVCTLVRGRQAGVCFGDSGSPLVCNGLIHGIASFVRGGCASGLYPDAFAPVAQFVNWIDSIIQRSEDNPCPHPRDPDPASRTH
# Protocol: as §1, §2, §3, §4
# cathepsin B (CTSB) = target: T4, cathepsin B (CTSB) (Homo sapiens, UniProt P07858); experiment: Off-target study, residual activity after 2 min pre-incubation: cathepsin B; assay type: biochemical; settings: 25 and 50 μM, 0.1 M MES pH 6.1, 1 mM EDTA, 37°C
# T4 construct: purchased R and D Systems
# Protocol: as §1, §2, §3
# Assays with Cathepsin B required a pre-activation step of the protease prior to use in the fluorogenic enzyme assays. Cathepsin B was diluted to 10 μg/ml in activation buffer (0.1 M MES, pH 6.1, containing 1 mM EDTA and 2 mM DTT) and left to stand at room temperature for 15 minutes. Activated Cathepsin B was then diluted (1:50 to give 10 ng/50 μl) with assay buffer (activation buffer minus the DTT) prior to use as described previously.
# thrombin = target: T5, thrombin (Homo sapiens, UniProt P00734); experiment: Activity-based profiling of thrombin (SDS-PAGE, streptavidin-HRP western blot); assay type: binding; settings: 30 min, 37°C; heavy (catalytic) chain; recapitulated in Figure 8B
# T5 construct: apparent molecular mass of 31 kDa, corresponding to the heavy (catalytic) chain of the protease; purchased R&D Systems
# Protocol: Samples of recombinant protease (trypsin, plasmin, thrombin, chymotrypsin, or HNE, as indicated in the relevant figure legends) were treated with each of the newly synthesized compounds at a concentration of 50 μM, for 30 min, at 37°C. A control sample (no ABP) was prepared by treating the recombinant protease with solvent vehicle (DMF) only, used to prepare the stock solution of each ABP. Samples were also pre-treated (±90°C for 30 min) before being incubated with each putative ABP. With trypsin and thrombin, further samples were prepared where Z-Arg^P-(OPh)2 or NAP559, respectively, was added 30 min prior to the addition of the ABP under examination. All treated samples were then denatured with SDS containing reducing treatment buffer (10 min at 95°C), followed by resolution by SDS-PAGE and subjected to Western blotting. Resolved proteins were then transferred onto the nitrocellulose membrane and labeled with streptavidin-HRP. The ABP–protease complex was then visualized following treatment with Luminata Forte HRP substrate.
# FIGURE 8 Activity Based Profiling of Trypsin-like serine proteases. (A) trypsin was treated (±) with NAP830, for 30 min, at 37°C (± pretreatment with Z-Arg^P-(OPh)2). (B) thrombin (1 […]) was pre-treated with various concentrations of NAP559 (30 min, at 37°C) followed by treatment (±) with NAP858 for 30 min, at 37°C. (C) Plasmin was treated in turn with QUBTL1, NAP962 and NAP830, (± pre-heat inactivation at 95°C, for 10 min) for 30 min, at 37°C. […]
# Following transfer, the extra protein binding sites on the membrane were blocked by addition of 3% (w/v) BSA in TBST (20 mM Tris, 137 mM NaCl, 1% (v/v) Tween 20, pH 7.6) and agitated gently at room temperature for 30 minutes. The biotin-labelled proteases were then detected by addition of Streptavidin-HRP (Vector Laboratories) in 3% (w/v) BSA in TBST at a concentration of 1:20000, for 1 hour at room temperature. […]
# trypsin = target: T6, trypsin (Sus scrofa, UniProt P00761); settings: cited from earlier work
# T6 construct: purchased Sigma-Aldrich; host or cells: porcine pancreas
# chymotrypsin [2] = target: T1, chymotrypsin; design: method as in Gilmore et al. (2009); settings: ref Gilmore et al. (2009); cited from earlier work
# T2 sequence (P00747 581-810 limits assumed): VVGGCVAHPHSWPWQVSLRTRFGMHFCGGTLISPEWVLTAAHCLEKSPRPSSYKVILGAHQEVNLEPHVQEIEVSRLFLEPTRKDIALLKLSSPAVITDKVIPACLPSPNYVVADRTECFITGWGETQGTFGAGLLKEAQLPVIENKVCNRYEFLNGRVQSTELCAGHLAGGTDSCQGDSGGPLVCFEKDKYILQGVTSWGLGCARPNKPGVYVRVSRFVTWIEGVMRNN
# T2 sequence (P00747 97-580 partner limits assumed): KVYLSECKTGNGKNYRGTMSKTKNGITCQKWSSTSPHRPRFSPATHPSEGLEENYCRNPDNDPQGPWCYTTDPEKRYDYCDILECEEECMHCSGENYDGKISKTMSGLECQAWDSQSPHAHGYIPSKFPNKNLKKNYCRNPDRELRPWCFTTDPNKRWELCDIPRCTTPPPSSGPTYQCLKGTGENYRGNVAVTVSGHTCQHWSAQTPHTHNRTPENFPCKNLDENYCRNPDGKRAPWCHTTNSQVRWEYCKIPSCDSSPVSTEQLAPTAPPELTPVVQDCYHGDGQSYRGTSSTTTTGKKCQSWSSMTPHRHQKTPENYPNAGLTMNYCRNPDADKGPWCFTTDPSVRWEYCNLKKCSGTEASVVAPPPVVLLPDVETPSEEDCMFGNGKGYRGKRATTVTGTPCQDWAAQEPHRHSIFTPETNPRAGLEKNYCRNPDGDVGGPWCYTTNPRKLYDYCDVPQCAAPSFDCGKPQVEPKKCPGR
# T6 sequence (P00761 9-231): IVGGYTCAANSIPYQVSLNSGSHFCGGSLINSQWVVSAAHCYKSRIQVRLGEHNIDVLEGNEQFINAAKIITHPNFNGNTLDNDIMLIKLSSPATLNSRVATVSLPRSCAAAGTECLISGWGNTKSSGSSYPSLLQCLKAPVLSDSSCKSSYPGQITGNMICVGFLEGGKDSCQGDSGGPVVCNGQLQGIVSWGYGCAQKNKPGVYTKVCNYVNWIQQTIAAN
compound,measurement,setting,value
"CC(C)[C@H](NC(=O)CN(Cc1ccccc1)C(=O)CN(CCCCN)C(=O)ON1C(=O)CCC1=O)C(N)=O [NAP533, Succinimidoyl-CO-NLys-NPhe-Val-NH2]",inhibition of chymotrypsin,chymotrypsin [1],< 5 % of control
same,Ki,plasmin; Boc-Val-Leu-Lys-NHMec 50 μM,2200 nM
same,k 3,plasmin; first-order rate constant,0.4 (± 0.04) min^−1
same,k 3 / K i,plasmin; second-order rate constant of inactivation,1.7 (± 0.3) × 10^5 M^−1 min^−1
same,inhibition of NE,neutrophil elastase (NE),< 5 % of control
N=C(N)NCCCN(CC(=O)NCC(=O)NCC(=O)NCCCOCCOCCOCCCNC(=O)CCCCC1SCC2NC(=O)NC21)C(=O)ON1C(=O)CCC1=O (stereo not shown) [NAP858],inhibitory activity against CTSB,cathepsin B (CTSB),none of the three carbamates tested exhibited any inhibitory activity against CTSB
same,labelling of thrombin by ABP (western blot),thrombin,detection of a band with an apparent molecular mass of 31 kDa
same,k 3,trypsin; ref Ferguson et al. (2022),0.5 (+ 0.1) min^−1
same,k 3 / K i,trypsin; ref Ferguson et al. (2022),34300 M⁻¹ s⁻¹ and 35000 M⁻¹ s⁻¹
"O=C(CCCCC1SCC2NC(=O)NC21)NCCCOCCOCCOCCCNC(=O)CCC(=O)NC(Cc1ccccc1)P(=O)(Oc1ccccc1)Oc1ccccc1 (stereo not shown) [QUBCL1, biotin-PEG-succinyl-Phe^P-(OPh)2]",Ki,chymotrypsin [2],1080 nM
same,k 3,chymotrypsin [2],0.119 min⁻¹
same,k 3 / K i,chymotrypsin [2],1850 M⁻¹ s⁻¹
Biotin-PEG-Succinyl-Lys^P-(OPh)2 [QUBTL2],k 3 / K i,trypsin; ref Martin and Walker (2017),18300 M⁻¹ s⁻¹
